Oligonucleotides are written 5' to 3', each unit as a sugar letter and its base; * is a phosphorothioate linkage, no mark a phosphodiester; rarer units and linkages stand in square brackets, end groups in braces. Plain capitals give the bases only. d = 2'-deoxy (DNA); r = 2'-OH (RNA)
Note: test concentration or dose not given here.

For the data set, the target named is UBE2M. Kind of data set: reporter assay of Huesken 2005. Particulars: siRNA.
Substance “sense rArGrArArGrArArGrGrArGrGrArGrGrArGrUrCdTdT / antisense rGrArCrUrCrCrUrCrCrUrCrCrUrUrCrUrUrCrUdGdC” yielded a normalised inhibition (eCFP-eYFP dual reporter) of 59.4%. On to “sense rArGrCrArGrCrArArGrArArGrGrCrGrUrCrGrGdTdT / antisense rCrCrGrArCrGrCrCrUrUrCrUrUrGrCrUrGrCrUdGdC”, for which the normalised inhibition (eCFP-eYFP dual reporter) amounted to 53%. The same measure for “sense rArGrCrUrGrArArCrCrUrGrCrCrCrArArGrArCdTdT / antisense rGrUrCrUrUrGrGrGrCrArGrGrUrUrCrArGrCrUdCdG”: 71.8%; for “sense rArGrGrArCrUrGrGrArArGrCrCrArGrUrCrCrUdTdT / antisense rArGrGrArCrUrGrGrCrUrUrCrCrArGrUrCrCrUdCdT”: 54.1%; for “sense rArGrGrArGrGrArGrGrArGrUrCrGrGrCrGrGrGdTdT / antisense rCrCrCrGrCrCrGrArCrUrCrCrUrCrCrUrCrCrUdTdC”: 41.7%. “sense rArGrGrCrCrGrCrArGrArGrGrUrCrCrUrGrCrAdTdT / antisense rUrGrCrArGrGrArCrCrUrCrUrGrCrGrGrCrCrUdCdC” registered a normalised inhibition (eCFP-eYFP dual reporter) of 65.4%. The substance “sense rArGrGrCrGrUrCrGrGrCrGrGrCrGrCrArGrCrUdTdT / antisense rArGrCrUrGrCrGrCrCrGrCrCrGrArCrGrCrCrUdTdC” had a normalised inhibition (eCFP-eYFP dual reporter) of 51.7%. The substance “sense rArGrGrGrCrArArCrGrUrCrUrGrCrCrUrCrArAdTdT / antisense rUrUrGrArGrGrCrArGrArCrGrUrUrGrCrCrCrUdCdG” returned a normalised inhibition (eCFP-eYFP dual reporter) of 79.5%. For “sense rArGrUrCrCrUrUrArCrGrArUrArArArCrUrCrCdTdT / antisense rGrGrArGrUrUrUrArUrCrGrUrArArGrGrArCrUdGdG” the value was 60.6%.

With “sense rArGrUrCrGrGrCrGrGrGrCrGrGrCrArCrCrArAdTdT / antisense rUrUrGrGrUrGrCrCrGrCrCrCrGrCrCrGrArCrUdCdC”, the normalised inhibition (eCFP-eYFP dual reporter) turned out to be 73.6%. For “sense rArGrUrGrUrGrArGrArCrArArUrGrGrUrCrUrAdTdT / antisense rUrArGrArCrCrArUrUrGrUrCrUrCrArCrArCrUdTdC” the value was 92.1%; for “sense rArUrCrCrArGrArArGrGrArCrArUrArArArCrGdTdT / antisense rCrGrUrUrUrArUrGrUrCrCrUrUrCrUrGrGrArUdCdC”, 56.4%. For “sense rArUrCrUrCrUrUrCrUrUrGrGrArGrCrCrCrArAdTdT / antisense rUrUrGrGrGrCrUrCrCrArArGrArArGrArGrArUdAdC” the value was 77.1%; for “sense rArUrGrGrUrCrUrArUrCrArCrCrCrCrArArCrAdTdT / antisense rUrGrUrUrGrGrGrGrUrGrArUrArGrArCrCrArUdTdG”, 71.3%. For “sense rCrArArCrCrCrCrGrArGrGrArCrCrCrArCrUrGdTdT / antisense rCrArGrUrGrGrGrUrCrCrUrCrGrGrGrGrUrUrGdGdG”, the normalised inhibition (eCFP-eYFP dual reporter) amounted to 62.8%. The same measure for “sense rCrArArUrGrGrUrCrUrArUrCrArCrCrCrCrArAdTdT / antisense rUrUrGrGrGrGrUrGrArUrArGrArCrCrArUrUrGdTdC”: 86.1%; for “sense rCrArCrCrCrCrArArCrArUrUrGrArCrCrUrCrGdTdT / antisense rCrGrArGrGrUrCrArArUrGrUrUrGrGrGrGrUrGdAdT”: 62.5%. For “sense rCrArGrCrUrUrCrUrCrArGrArUrCrCrArGrArCdTdT / antisense rGrUrCrUrGrGrArUrCrUrGrArGrArArGrCrUrGdAdT” the value was 79.3%.

For “sense rCrArUrGrCrGrGrGrGrUrGrGrCrUrArCrArUrCdTdT / antisense rGrArUrGrUrArGrCrCrArCrCrCrCrGrCrArUrGdGdA”, the normalised inhibition (eCFP-eYFP dual reporter) was 67.7%.

Substance “sense rCrCrGrCrArGrArGrGrUrCrCrUrGrCrArGrArAdTdT / antisense rUrUrCrUrGrCrArGrGrArCrCrUrCrUrGrCrGrGdCdC” registered a normalised inhibition (eCFP-eYFP dual reporter) of 67.1%. “sense rCrCrUrGrArUrGrArGrGrGrCrUrUrCrUrArCrAdTdT / antisense rUrGrUrArGrArArGrCrCrCrUrCrArUrCrArGrGdAdC” returned a normalised inhibition (eCFP-eYFP dual reporter) of 77.9%. For “sense rCrGrArGrCrUrGrArArCrCrUrGrCrCrCrArArGdTdT / antisense rCrUrUrGrGrGrCrArGrGrUrUrCrArGrCrUrCrGdTdT” the value was 71.9%; for “sense rCrGrGrCrGrGrCrGrCrArGrCrUrGrCrGrGrArUdTdT / antisense rArUrCrCrGrCrArGrCrUrGrCrGrCrCrGrCrCrGdAdC”, 69.9%. The same measure for “sense rCrGrGrGrGrUrGrGrCrUrArCrArUrCrGrGrCrUdTdT / antisense rArGrCrCrGrArUrGrUrArGrCrCrArCrCrCrCrGdCdA”: 54.3%; for “sense rCrUrArCrArArGrArGrUrGrGrGrArArGrUrUrUdTdT / antisense rArArArCrUrUrCrCrCrArCrUrCrUrUrGrUrArGdAdA”: 87.3%; for “sense rCrUrGrArArCrArArGrGrArGrGrCrCrGrCrArGdTdT / antisense rCrUrGrCrGrGrCrCrUrCrCrUrUrGrUrUrCrArGdTdG”: 68.6%. The substance “sense rCrUrGrCrArGrArArCrArArCrCrGrGrCrGrGrCdTdT / antisense rGrCrCrGrCrCrGrGrUrUrGrUrUrCrUrGrCrArGdGdA” showed a normalised inhibition (eCFP-eYFP dual reporter) of 64.1%. “sense rCrUrGrGrUrCrArUrCrUrGrUrCrCrUrGrArUrGdTdT / antisense rCrArUrCrArGrGrArCrArGrArUrGrArCrCrArGdCdT” came in with a normalised inhibition (eCFP-eYFP dual reporter) of 76.7%.

Consider “sense rCrUrUrCrArArGrCrUrGrGrUrCrArUrCrUrGrUdTdT / antisense rArCrArGrArUrGrArCrCrArGrCrUrUrGrArArGdTdT”, for which the normalised inhibition (eCFP-eYFP dual reporter) was 77%. For “sense rCrUrUrCrUrArCrArArGrArGrUrGrGrGrArArGdTdT / antisense rCrUrUrCrCrCrArCrUrCrUrUrGrUrArGrArArGdCdC” the value was 75.9%; for “sense rCrUrUrCrUrCrArGrArUrCrCrArGrArCrGrArCdTdT / antisense rGrUrCrGrUrCrUrGrGrArUrCrUrGrArGrArArGdCdT”, 65.6%; for “sense rCrUrUrCrUrUrGrGrArGrCrCrCrArArCrCrCrCdTdT / antisense rGrGrGrGrUrUrGrGrGrCrUrCrCrArArGrArArGdAdG”, 61.3%. On to “sense rCrUrUrGrGrArGrCrCrCrArArCrCrCrCrGrArGdTdT / antisense rCrUrCrGrGrGrGrUrUrGrGrGrCrUrCrCrArArGdAdA”, for which the normalised inhibition (eCFP-eYFP dual reporter) worked out at 64.5%. “sense rGrArCrArArUrGrGrUrCrUrArUrCrArCrCrCrCdTdT / antisense rGrGrGrGrUrGrArUrArGrArCrCrArUrUrGrUrCdTdC” showed a normalised inhibition (eCFP-eYFP dual reporter) of 61.8%.

As for “sense rGrArGrGrArGrUrCrGrGrCrGrGrGrCrGrGrCrAdTdT / antisense rUrGrCrCrGrCrCrCrGrCrCrGrArCrUrCrCrUrCdCdT”, the normalised inhibition (eCFP-eYFP dual reporter) was 59.9%. The same measure for “sense rGrArGrUrCrGrGrCrGrGrGrCrGrGrCrArCrCrAdTdT / antisense rUrGrGrUrGrCrCrGrCrCrCrGrCrCrGrArCrUrCdCdT”: 53%; for “sense rGrArUrArUrCrArGrCrUrUrCrUrCrArGrArUrCdTdT / antisense rGrArUrCrUrGrArGrArArGrCrUrGrArUrArUrCdAdC”: 60.5%. For “sense rGrArUrGrArGrGrGrCrUrUrCrUrArCrArArGrAdTdT / antisense rUrCrUrUrGrUrArGrArArGrCrCrCrUrCrArUrCdAdG” the value was 82.7%.

Consider “sense rGrCrArGrArGrGrUrCrCrUrGrCrArGrArArCrAdTdT / antisense rUrGrUrUrCrUrGrCrArGrGrArCrCrUrCrUrGrCdGdG”, for which the normalised inhibition (eCFP-eYFP dual reporter) worked out at 69.9%. Turning to “sense rGrCrArGrCrArGrCrArArGrArArGrGrCrGrUrCdTdT / antisense rGrArCrGrCrCrUrUrCrUrUrGrCrUrGrCrUrGrCdCdC”, the normalised inhibition (eCFP-eYFP dual reporter) was 61%. Consider “sense rGrCrCrArGrUrCrCrUrUrArCrGrArUrArArArCdTdT / antisense rGrUrUrUrArUrCrGrUrArArGrGrArCrUrGrGrCdTdT”, for which the normalised inhibition (eCFP-eYFP dual reporter) worked out at 68.5%. The same measure for “sense rGrGrArCrCrCrArCrUrGrArArCrArArGrGrArGdTdT / antisense rCrUrCrCrUrUrGrUrUrCrArGrUrGrGrGrUrCrCdTdC”: 63.1%; for “sense rGrGrCrCrArGrGrGrUrUrArCrCrCrGrCrArUrGdTdT / antisense rCrArUrGrCrGrGrGrUrArArCrCrCrUrGrGrCrCdCdA”: 73.8%.

Substance “sense rGrGrCrCrGrCrArGrArGrGrUrCrCrUrGrCrArGdTdT / antisense rCrUrGrCrArGrGrArCrCrUrCrUrGrCrGrGrCrCdTdC” returned a normalised inhibition (eCFP-eYFP dual reporter) of 66.4%. The same measure for “sense rGrGrCrCrUrGrCrArGrUrArUrCrUrCrUrUrCrUdTdT / antisense rArGrArArGrArGrArUrArCrUrGrCrArGrGrCrCdAdT”: 80.2%. On to “sense rGrGrCrGrGrCrGrCrArGrCrUrGrCrGrGrArUrCdTdT / antisense rGrArUrCrCrGrCrArGrCrUrGrCrGrCrCrGrCrCdGdA”, for which the normalised inhibition (eCFP-eYFP dual reporter) is 71.7%. For “sense rGrGrCrGrGrCrUrGrUrUrUrGrArGrCrArGrArAdTdT / antisense rUrUrCrUrGrCrUrCrArArArCrArGrCrCrGrCrCdGdG” the value was 76.6%. The same measure for “sense rGrGrGrCrArGrCrArGrCrArArGrArArGrGrCrGdTdT / antisense rCrGrCrCrUrUrCrUrUrGrCrUrGrCrUrGrCrCrCdTdT”: 58.9%; for “sense rGrGrGrCrCrArGrGrGrUrUrArCrCrCrGrCrArUdTdT / antisense rArUrGrCrGrGrGrUrArArCrCrCrUrGrGrCrCrCdAdC”: 79.3%.

For the origin of these results see the OligoGym collection.
